Tests used:
[1] = test system: Purine nucleoside phosphorylase (Toxoplasma gondii); test: Inhibition of Toxoplasma gondii purine nucleoside phosphorylase from virulent strain RH at 1 mM
[2] = test system: Purine nucleoside phosphorylase (Toxoplasma gondii); test: Inhibition of Toxoplasma gondii purine nucleoside phosphorylase from virulent strain RH at 4 mM
[3] = test system: Purine nucleoside phosphorylase (Toxoplasma gondii); test: Inhibition of Toxoplasma gondii purine nucleoside phosphorylase from cystic strain ME 49 at 1 mM
[4] = test system: Purine nucleoside phosphorylase (Toxoplasma gondii); test: Inhibition of Toxoplasma gondii purine nucleoside phosphorylase from cystic strain ME 49 at 4 mM
[5] = molecular target: T1, Purine nucleoside phosphorylase (Homo sapiens) (UniProt P00491); test: Compound was evaluated for its ability to inhibit in vitro Toxoplasma gondii purine nucleoside phosphorylase from cystic strain ME 49 at a concentration of 4 mM
T1 sequence (whole entry): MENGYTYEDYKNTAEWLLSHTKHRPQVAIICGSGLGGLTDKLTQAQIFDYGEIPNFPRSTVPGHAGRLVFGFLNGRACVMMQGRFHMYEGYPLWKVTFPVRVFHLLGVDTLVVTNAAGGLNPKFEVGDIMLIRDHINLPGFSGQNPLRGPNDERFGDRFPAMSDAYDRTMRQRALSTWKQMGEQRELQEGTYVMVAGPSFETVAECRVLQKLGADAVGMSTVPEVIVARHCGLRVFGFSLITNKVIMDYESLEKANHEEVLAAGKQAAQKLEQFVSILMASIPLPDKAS

| SMILES | inhibition [1] | inhibition [2] | inhibition [3] | inhibition [4] | inhibition [5] |
| --- | --- | --- | --- | --- | --- |
| CCCCn1cnc2c1C(=O)C=CC2=O | 45% | 68% | 53% | 65% | – |
| O=c1[nH]cnc2c1cnn2[C@@H]1O[C@H](CO)[C@@H](O)[C@H]1O | 8% | 28% | 11% | 22% | – |
| Cc1nc2c(n1Cc1ccccc1)C(=O)C=CC2=O | 54% | 82% | 66% | 92% | – |
| O=C1C=CC(=O)c2[nH]cnc21 | 47% | 68% | 52% | 71% | – |
| O=C1C=CC(=O)c2c1ncn2Cc1ccc(F)cc1 | 80% | 88% | 56% | – | 100% |
| O=C1C=CC(=O)c2c1ncn2Cc1cccc(F)c1 | 65% | 100% | 60% | 100% | – |
| Cn1cnc2c1C(=O)C=CC2=O | 55% | 85% | 31% | 82% | – |
| O=C1C=CC(=O)c2c1nc(Cc1ccccc1)n2Cc1ccccc1 | 65% | 80% | 61% | 78% | – |
| O=C1C=CC(=O)c2c1ncn2Cc1ccccc1F | 70% | 87% | 62% | 89% | – |

— ChEMBL document CHEMBL1135256, “Benzimidazole-4,7-diones as inhibitors of protozoal (Toxoplasma gondii) purine nucleoside phosphorylase” (Bioorg Med Chem Lett, 2002)
